20 compounds from US20250289789A1, “REVERSIBLE LYSINE COVALENT MODIFIERS OF CDK2 AND USES THEREOF” (Terremoto Biosciences, Inc., priority 2023, published 2025) can be followed below.

Each structure is given as a SMILES string. pIC50: −log10 of the molar value. Read-outs that look alike come from different tables or passages of the source.

Common to all, as to assay type: cell-based
Experiment [1] deals with T1, CDK1-NanoLuc fusion with CCNB1 in 293T or 293 cells (Homo sapiens, UniProt P06493).
T1 construct: host or cells: 293T (ATCC CRL-3216) or 293 (ATCC CRL-1573)
Nature of the experiment: NanoBRET Target Engagement (TE) Intracellular Kinase Assay, CDK1/CCNB1. The following applies: NanoBRET TE intracellular kinase assay, 2-hour incubation, read-out: NanoBRET-CDK1/B1 IC50. Summed up:
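293T or 293 cells co-transfected with CDK1-NanoLuc and CCNB1 vectors, incubated 24 h, then exposed to NanoBRET Tracer K-10 plus compound for 2 h at 37° C. BRET ratio (610/450 nm) normalized to DMSO; IC50 from four-parameter logistic fit.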

The test system of experiment [2] is Phospho-Rb Ser807/811 in OVCAR3 cells. Nature of the experiment: OVCAR3 Phospho-Rb Ser807/811 HTRF assay. The following applies: Homo sapiens, OVCAR-3, 1 h, read-out: pRb-OVCAR3 IC50. The protocol:
Cells were trypsinized and resuspended in 1 mM hydroxyurea (Sigma; H8627), 90% RPMI and 10% fetal bovine serum. […] Dose response curve normalized to DMSO control was plotted using four-parameter logistic model for IC50 calculation.
(In TR-FRET formats the signal depends on donor and acceptor labels being close together.)

Experiment [3] has as its target T2, CDK2-NanoLuc fusion with CCNE1 in 293T or 293 cells (Homo sapiens, UniProt P24941).
T2 construct: host or cells: 293T (ATCC CRL-3216) or 293 (ATCC CRL-1573)
Nature of the experiment: NanoBRET Target Engagement (TE) Intracellular Kinase Assay, CDK2/CCNE1. The following applies: NanoBRET TE intracellular kinase assay, 2-hour incubation, read-out: NanoBRET-CDK2/E1 IC50.

The target in experiment [4] is T3, CDK4-NanoLuc fusion with CCND1 in 293T or 293 cells (Homo sapiens, UniProt P11802).
T3 construct: host or cells: 293T (ATCC CRL-3216) or 293 (ATCC CRL-1573)
Nature of the experiment: NanoBRET Target Engagement (TE) Intracellular Kinase Assay, CDK4/CCND1. The following applies: NanoBRET TE intracellular kinase assay, 2-hour incubation, read-out: NanoBRET-CDK4/D1 IC50. A general note: BRET reads energy transfer from a luciferase to a nearby fluorophore.

Setting [5] is: OVCAR3 cells, Phospho-Rb Ser807/811 HTRF, 1 hour incubation.

T1 sequence (P06493 whole entry, the tested form may be a part): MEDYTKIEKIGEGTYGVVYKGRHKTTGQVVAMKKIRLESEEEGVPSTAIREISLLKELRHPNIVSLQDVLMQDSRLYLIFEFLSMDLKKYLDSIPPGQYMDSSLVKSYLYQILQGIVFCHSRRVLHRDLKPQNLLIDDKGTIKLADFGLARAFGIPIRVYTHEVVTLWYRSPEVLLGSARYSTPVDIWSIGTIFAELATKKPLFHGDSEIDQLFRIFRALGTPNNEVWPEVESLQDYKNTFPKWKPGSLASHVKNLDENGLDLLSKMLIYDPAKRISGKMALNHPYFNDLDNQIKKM
T1 sequence (P14635 whole entry partner, the tested form may be a part): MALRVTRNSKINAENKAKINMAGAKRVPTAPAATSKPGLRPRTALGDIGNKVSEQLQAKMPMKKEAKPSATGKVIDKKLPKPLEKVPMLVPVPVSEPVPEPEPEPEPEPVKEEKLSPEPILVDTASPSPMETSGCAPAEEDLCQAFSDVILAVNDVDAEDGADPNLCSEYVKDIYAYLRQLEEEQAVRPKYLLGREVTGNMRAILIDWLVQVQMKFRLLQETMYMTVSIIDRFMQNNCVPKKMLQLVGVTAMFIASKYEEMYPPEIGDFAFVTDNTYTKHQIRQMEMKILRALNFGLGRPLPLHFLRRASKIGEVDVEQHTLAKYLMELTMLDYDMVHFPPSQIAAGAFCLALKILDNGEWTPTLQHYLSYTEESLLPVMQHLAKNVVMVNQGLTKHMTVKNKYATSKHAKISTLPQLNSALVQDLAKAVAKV
T3 sequence (P11802 whole entry, the tested form may be a part): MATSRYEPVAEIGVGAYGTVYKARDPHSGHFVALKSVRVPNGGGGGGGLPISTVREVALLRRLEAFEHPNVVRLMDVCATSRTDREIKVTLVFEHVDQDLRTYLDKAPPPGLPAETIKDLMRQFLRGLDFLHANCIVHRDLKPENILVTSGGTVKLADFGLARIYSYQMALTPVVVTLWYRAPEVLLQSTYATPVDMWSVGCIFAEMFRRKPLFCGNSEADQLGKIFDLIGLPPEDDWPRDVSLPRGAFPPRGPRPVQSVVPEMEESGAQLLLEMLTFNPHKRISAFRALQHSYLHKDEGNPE
T3 sequence (P24385 whole entry partner, the tested form may be a part): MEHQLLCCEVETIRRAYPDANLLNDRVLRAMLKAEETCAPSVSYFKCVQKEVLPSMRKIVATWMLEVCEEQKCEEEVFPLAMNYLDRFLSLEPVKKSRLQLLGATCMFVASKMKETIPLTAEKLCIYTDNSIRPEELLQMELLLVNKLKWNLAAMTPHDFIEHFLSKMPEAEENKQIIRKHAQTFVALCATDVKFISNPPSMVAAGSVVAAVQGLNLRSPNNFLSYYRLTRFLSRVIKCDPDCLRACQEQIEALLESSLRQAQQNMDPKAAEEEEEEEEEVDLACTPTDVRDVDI

Turning to `COCc1cc(O)c(C=O)c(OCC(=O)Nc2cc([C@H]3CC[C@@H](OC(=O)NC(C)C)C3)[nH]n2)c1` [Compound 72, (1R,3S)-3-(3-(2-(2-formyl-3-hydroxy-5-(methoxymethyl)phenoxy)acetamido)-1H-pyrazol-5-yl)cyclopentyl isopropylcarbamate], the pIC50 is 6.36 in experiment [1], 6.32 in experiment [2] (setting [5]), 8.08 in experiment [3] and < 5.00 in experiment [4].
Taken in the same sequence, the figures for `CC(C)NC(=O)O[C@@H]1CC[C@H](c2cc(NC(=O)COc3cc(Cl)cc(O)c3C=O)n[nH]2)C1` [Compound 73, (1R,3S)-3-(3-(2-(5-chloro-2-formyl-3-hydroxyphenoxy)acetamido)-1H-pyrazol-5-yl)cyclopentyl isopropylcarbamate] were 7.21, 6.52, 7.57 and < 5.00.
As for `COc1ccc(-c2cc(C(=O)Nc3cc([C@H]4CC[C@@H](OC(=O)NC(C)C)C4)[nH]n3)n(C)n2)c(C=O)c1O` [Compound 74, (1R,3S)-3-{5-[5-(2-formyl-3-hydroxy-4-methoxyphenyl)-2-methylpyrazole-3-amido]-2H-pyrazol-3-yl}cyclopentyl N-isopropylcarbamate; trifluoroacetic acid], the pIC50 is 7.53 in experiment [1], 6.28 in experiment [2] (setting [5]), 8.15 in experiment [3] and 5.40 in experiment [4].
For `CC(C)NC(=O)O[C@@H]1CC[C@H](c2cc(Nc3cc(C#Cc4cccc(O)c4C=O)ccn3)n[nH]2)C1` [Compound 75, (1R,3S)-3-[5-({4-[2-(2-formyl-3-hydroxyphenyl)ethynyl]pyridin-2-yl}amino)-2H-pyrazol-3-yl]cyclopentyl N-isopropylcarbamate; trifluoroacetic acid], in that order: 6.43, 5.30, 7.67 and 6.65.
For `COc1cc(O)c(C=O)c(Oc2ccnc(Nc3cc([C@H]4CC[C@@H](OC(=O)NC(C)C)C4)[nH]n3)c2)c1` [Compound 76, (1R,3S)-3-(3-((4-(2-formyl-3-hydroxy-5-methoxyphenoxy) 476yridine-2-yl)amino)-1H-pyrazol-5-yl)cyclopentyl isopropylcarbamate], in that order: 7.18, 6.51, 8.30 and 5.19.
Consider `COc1cc(O)c(C=O)c(OCc2cc(C(=O)Nc3cc([C@H]4CC[C@@H](OC(=O)NC(C)C)C4)[nH]n3)n(C)n2)c1` [Compound 77], for which the pIC50 in experiment [1] is 8.05; in experiment [2] (setting [5]) it was 7.33; in experiment [3] it was 8.52; in experiment [4], 7.35.
`CC(C)NC(=O)O[C@@H]1CC[C@H](c2cc(NC(=O)N3CC=C(c4cccc(O)c4C=O)C3)n[nH]2)C1` [Compound 78, (1R,3S)-3-(3-(3-(2-formyl-3-hydroxyphenyl)-2,5-dihydro-1H-pyrrole-1-carboxamido)-1H-pyrazol-5-yl)cyclopentyl isopropylcarbamate]: the pIC50 in experiment [1] was 6.85; in experiment [2] (setting [5]), 5.92; in experiment [3], 7.78; in experiment [4], < 5.00.
Consider `COc1cc(O)c(C=O)c(-n2cc(CC(=O)Nc3cc([C@H]4CC[C@@H](OC(=O)NC(C)C)C4)[nH]n3)cn2)c1` [Compound 79, (1R,3S)-3-(5-{2-[1-(2-formyl-3-hydroxy-5-methoxyphenyl)pyrazol-4-yl]acetamido}-2H-pyrazol-3-yl) cyclopentyl N-isopropylcarbamate], for which the pIC50 was 7.33 in experiment [1], 6.30 in experiment [2], 7.85 in experiment [3] and 6.14 in experiment [4].
As for `COc1ccc(OCC(=O)Nc2cc([C@H]3CC[C@@H](OC(=O)NC(C)C)C3)[nH]n2)c(C=O)c1O` [Compound 80, (1R,3S)-3-{5-[2-(2-formyl-3-hydroxy-4-methoxyphenoxy)acetamido]-2H-pyrazol-3-yl}cyclopentyl N-isopropylcarbamate], the pIC50 in experiment [1] was 7.43; in experiment [2] (setting [5]), 6.88; in experiment [3] it was 7.60; in experiment [4] it was < 5.00.
For the compound `CCCNC(=O)O[C@@H]1CC[C@H](c2cc(NC(=O)COc3cccc(O)c3C=O)n[nH]2)C1` [Compound 81, (1R,3S)-3-{5-[2-(2-formyl-3-hydroxyphenoxy)acetamido]-2H-pyrazol-3-yl}cyclopentyl N-propylcarbamate; trifluoroacetic acid], the pIC50 is 7.73 in experiment [1], 6.92 in experiment [2] (setting [5]), 8.64 in experiment [3] and < 5.00 in experiment [4].
Taken in the same sequence, the figures for `CC1(NC(=O)O[C@@H]2CC[C@H](c3cc(NC(=O)COc4cccc(O)c4C=O)n[nH]3)C2)CCC1` [Compound 83, (1R,3S)-3-{5-[2-(2-formyl-3-hydroxyphenoxy)acetamido]-2H-pyrazol-3-yl}cyclopentyl N-(1-methylcyclobutyl) carbamate; trifluoroacetic acid] were 8.21, 7.08, 8.32 and 5.60.
For `CC(C)(C)NC(=O)O[C@@H]1CC[C@H](c2cc(NC(=O)COc3cccc(O)c3C=O)n[nH]2)C1` [Compound 84, (1R,3S)-3-(3-(2-(2-formyl-3-hydroxyphenoxy)acetamido)-1H-pyrazol-5-yl)cyclopentyl tert-butylcarbamate], in that order: 7.82, 6.64, 8.23 and 5.28.
For `O=Cc1c(O)cccc1OCC(=O)Nc1cc([C@H]2CC[C@@H](OC(=O)N3CCCC3)C2)[nH]n1` [Compound 85, (1R,3S)-3-{5-[2-(2-formyl-3-hydroxyphenoxy)acetamido]-2H-pyrazol-3-yl}cyclopentyl pyrrolidine-1-carboxylate], in that order: 7.63, 6.75, 8.59 and < 5.00.
With `O=Cc1c(O)cccc1OCC(=O)Nc1cc([C@H]2CC[C@@H](OC(=O)NC3CC3)C2)[nH]n1` [Compound 86, (1R,3S)-3-(3-(2-(2-formyl-3-hydroxyphenoxy)acetamido)-1H-pyrazol-5-yl)cyclopentyl cyclopropylcarbamate], the pIC50 in experiment [1] is 7.49; in experiment [2] (setting [5]) it was 6.67; in experiment [3] it was 8.43; in experiment [4], < 5.00.
For `O=Cc1c(O)cccc1OCC(=O)Nc1cc([C@H]2CC[C@@H](OC(=O)NC3CCC3)C2)[nH]n1` [Compound 87, (1R,3S)-3-(3-(2-(2-formyl-3-hydroxyphenoxy)acetamido)-1H-pyrazol-5-yl)cyclopentyl cyclobutylcarbamate], in that order: 7.61, 6.68, 8.56 and 5.01.
For `O=Cc1c(O)cccc1OCC(=O)Nc1cc([C@H]2CC[C@@H](OC(=O)NC3CCCC3)C2)[nH]n1` [Compound 88, (1R,3S)-3-(3-(2-(2-formyl-3-hydroxyphenoxy)acetamido)-1H-pyrazol-5-yl)cyclopentyl cyclopentylcarbamate], in that order: 7.38, 6.64, 8.46 and < 5.00.
For `CC(C)NC(=O)O[C@@H]1CC[C@H](c2cc(NC(=O)C3CCN(c4cccc(O)c4C=O)CC3)n[nH]2)C1` [Compound 92, (1R,3S)-3-{5-[1-(2-formyl-3-hydroxyphenyl)piperidine-4-amido]-2H-pyrazol-3-yl}cyclopentyl N-isopropylcarbamate], in that order: 6.56, 5.62, 7.79 and 5.42.
For the compound `CC(C)NC(=O)O[C@@H]1CC[C@H](c2cc(NC(=O)C3CCN(c4cccc(O)c4C=O)C3)n[nH]2)C1` (stereo partly drawn) [Compound 93, (1R,3S)-3-{5-[1-(2-formyl-3-hydroxyphenyl)pyrrolidine-3-amido]-2H-pyrazol-3-yl}cyclopentyl N-isopropylcarbamate], the pIC50 in experiment [1] was 6.77; in experiment [2] (setting [5]), 6.41; in experiment [3] it was 8.07; in experiment [4], 5.64.
Taken in the same sequence, the figures for `COc1cccc(OCC(=O)Nc2cc([C@H]3CC[C@@H](OC(=O)NC(C)C)C3)[nH]n2)c1C=O` [Compound 95, (1R,3S)-3-{5-[2-(2-formyl-3-methoxyphenoxy)acetamido]-2H-pyrazol-3-yl}cyclopentyl N-isopropylcarbamate; trifluoroacetic acid] were 7.67, 6.94, 8.90 and < 5.00.
`CC(C)NC(=O)O[C@@H]1CC[C@H](c2cc(NC(=O)CSc3cccc(O)c3C=O)n[nH]2)C1` [Compound 96, (1R,3S)-3-(5-{2-[(2-formyl-3-hydroxyphenyl)sulfanyl]acetamido}-2H-pyrazol-3-yl)cyclopentyl N-isopropylcarbamate; trifluoroacetic acid]: the pIC50 in experiment [1] is 6.89; in experiment [2] (setting [5]), 6.22; in experiment [3] it was 8.15; in experiment [4], 5.74.
